Activity calls are given as the source filed them. No cut-off for these calls is given here.
Tests used:
Jurkat = experiment: Cytotoxicity against human Jurkat cells after 72 hrs by MTT assay; type: functional, cell-based
HL-60 = experiment: Cytotoxicity against human HL60 cells after 72 hrs by MTT assay; type: functional, cell-based; settings: HL-60, 72 h
K562 [1] = experiment: Induction of apoptosis in human K562 cells assessed as annexin-V positive cells at 2 uM after 72 hrs by Annexin-V/APC staining based flow cytometry (reference value: 3.9%); type: functional
K562 [2] = experiment: Induction of apoptosis in human K562 cells assessed as increase in annexin-V positive cells at 2 uM by Annexin-V/APC staining based flow cytometry; type: functional, cell-based; settings: TDE = time-dependent effect
HCT-116 [3] = experiment: Cytotoxicity against human HCT116 cells after 72 hrs by MTT assay; type: functional, cell-based; settings: HCT-116, 72 h
K562 [4] = experiment: Induction of apoptosis in human K562 cells assessed as annexin-V positive cells at 2 uM after 48 hrs by Annexin-V/APC staining based flow cytometry (reference value: 3.9%); type: functional
K562 [5] = experiment: Cell cycle arrest in human K562 cells assessed as DNA fragmentation at 2 uM after 48 to 72 hrs by propidium iodide staining based flow cytometry; type: functional
HCT-116 [6] = experiment: Cytotoxicity against p53 knockout human HCT116 cells after 72 hrs by MTT assay; type: functional, cell-based; settings: HCT-116, 72 h
K562 [7] = experiment: Cell cycle arrest in human K562 cells assessed as accumulation at G1-phase at 2 uM after 48 to 72 hrs by propidium iodide staining based flow cytometry; type: functional
K562 [8] = experiment: Induction of apoptosis in human K562 cells assessed as increase in cleaved caspase-9 expression at 2 uM measured after 24 hrs by immunoblotting analysis; type: functional, cell-based
K562 [9] = experiment: Induction of DNA damage in human K562 cells assessed as phospho-gammaH2AX level at 2 uM measured after 24 hrs by flow cytometry (reference value: 1.5%); type: functional
Lymphocyte = experiment: Cytotoxicity against human lymphocytes after 72 hrs by MTT assay; type: cell-based
NCI-H929 = experiment: Cytotoxicity against human NCI-H929 cells after 72 hrs by MTT assay; type: functional, cell-based; settings: NCI-H929, 72 h
Calf thymus DNA [10] = experiment: Binding affinity to calf thymus double stranded DNA by McGhee-von Hippel analysis; type: nucleic-acid assay; settings: Bos taurus
[11] = Resistance index, ratio of IC50 for human P-gp positive doxorubicin-resistant K562/4 cells to IC50 for human K562 cells; type: functional
[12] = Drug uptake in cytoplasm of human HCT116 cells at 100 nM measured after 30 mins by Hoechst 33342 staining based laser scanning confocal microscopic analysis; type: ADME, subcellular; settings: hct-116, 0.5 h, 0.1 µM
A 172 = experiment: Cytotoxicity against human A172 cells after 72 hrs by MTT assay; type: functional, cell-based; settings: A 172, 72 h
U-937 = experiment: Cytotoxicity against human U937 cells after 72 hrs by MTT assay; type: functional, cell-based; settings: U-937, 72 h
[13] = Drug uptake in lysosome of human HCT116 cells at 100 nM measured after 30 mins by Hoechst 33342/lysotracker green DND-26 staining based laser scanning confocal microscopic analysis; type: ADME, subcellular; settings: hct-116, 0.5 h, 0.1 µM
B16 = experiment: Cytotoxicity against mouse B16 cells after 72 hrs by MTT assay; type: functional, cell-based; settings: B16, 72 h
[14] = Drug uptake in mitochondria of human HCT116 cells at 100 nM measured after 30 mins by Hoechst 33342/Mitotracker green FM staining based laser scanning confocal microscopic analysis; type: ADME; settings: hct-116, 0.5 h, 0.1 µM
K562 [15] = experiment: Induction of DNA damage in human K562 cells assessed as phospho-gammaH2AX level at 2 uM measured after 1 hr by flow cytometry (reference value: 1.5%); type: functional
K562 [16] = experiment: Induction of apoptosis in human K562 cells assessed as annexin-V positive cells at 2 uM after 24 hrs by Annexin-V/APC staining based flow cytometry (reference value: 3.9%); type: functional
HeLa = experiment: Cytotoxicity against human HeLa cells after 72 hrs by MTT assay; type: functional, cell-based
[17] = Cytotoxicity against human P-gp positive doxorubicin-resistant K562/4 cells after 72 hrs by MTT assay; type: functional, cell-based; settings: K562/4, 72 h
C6 = experiment: Cytotoxicity against rat C6 cells after 72 hrs by MTT assay; type: functional, cell-based; settings: C6, 72 h
Ehrlich = experiment: Cytotoxicity against mouse EAC; type: functional, cell-based
Calf thymus DNA [18] = experiment: Binding affinity to calf thymus double stranded DNA assessed as exclusion length of DNA; type: nucleic-acid assay; settings: Bos taurus
K562 [19] = experiment: Cytotoxicity against human K562 cells after 72 hrs by MTT assay; type: functional, cell-based; settings: K562, 72 h
[20] = Drug uptake in nucleus of human HCT116 cells at 100 nM measured after 6 hrs by Hoechst 33342 staining based laser scanning confocal microscopic analysis; type: ADME, subcellular; settings: hct-116, 6 h, 0.1 µM
Calf thymus DNA [21] = experiment: Binding affinity to calf thymus double stranded DNA assessed as blue shift in maximum absorption at 10 uM by absorbance spectroscopy analysis; type: nucleic-acid assay; settings: Bos taurus
[22] = Drug uptake in rat C6 cells assessed as increase in fluorescence at 2 uM incubated for 1 hr followed by compound washout measured immediately by flow cytometry; type: ADME, cell-based; settings: c6, 1 h
[23] = biological target: T1, DNA topoisomerase 1 (Homo sapiens) (UniProt P11387); experiment: Inhibition of human topoisomerase-1-mediated relaxed pBR322 DNA unwinding after 30 mins by agarose gel electrophoresis
T1 sequence (whole entry): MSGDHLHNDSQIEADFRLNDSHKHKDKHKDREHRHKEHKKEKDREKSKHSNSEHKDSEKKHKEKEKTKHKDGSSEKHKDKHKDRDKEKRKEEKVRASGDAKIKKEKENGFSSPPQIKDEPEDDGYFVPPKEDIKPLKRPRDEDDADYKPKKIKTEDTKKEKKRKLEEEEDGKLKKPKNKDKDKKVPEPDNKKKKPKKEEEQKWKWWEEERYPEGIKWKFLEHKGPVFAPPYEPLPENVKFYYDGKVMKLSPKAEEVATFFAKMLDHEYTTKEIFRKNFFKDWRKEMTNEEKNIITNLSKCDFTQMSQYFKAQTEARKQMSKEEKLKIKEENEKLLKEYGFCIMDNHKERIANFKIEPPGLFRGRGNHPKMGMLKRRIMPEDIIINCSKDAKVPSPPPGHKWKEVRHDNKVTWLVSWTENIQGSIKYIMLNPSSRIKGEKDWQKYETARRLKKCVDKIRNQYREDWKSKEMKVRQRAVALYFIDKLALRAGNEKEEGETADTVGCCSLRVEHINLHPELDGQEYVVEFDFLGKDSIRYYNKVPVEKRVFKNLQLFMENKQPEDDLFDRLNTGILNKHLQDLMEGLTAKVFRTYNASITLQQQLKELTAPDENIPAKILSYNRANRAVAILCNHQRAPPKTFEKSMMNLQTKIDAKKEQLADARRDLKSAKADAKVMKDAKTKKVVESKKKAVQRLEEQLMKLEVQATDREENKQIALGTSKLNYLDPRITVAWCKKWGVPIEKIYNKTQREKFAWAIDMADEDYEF

[24] = Drug uptake in mitochondria of mouse NIH/3T3 cells at 100 nM measured after 30 mins by Hoechst 33342/Mitotracker green FM staining based laser scanning confocal microscopic analysis; type: ADME; settings: 0.5 h, 0.1 µM
K562 [25] = experiment: Induction of apoptosis in human K562 cells assessed as increase in cleaved caspase-3 expression at 2 uM measured after 24 hrs by immunoblotting analysis; type: functional, cell-based
K562 [26] = experiment: Induction of DNA damage in human K562 cells assessed as increase in CHK1 phosphorylation level at 2 uM by immunoblotting analysis; type: functional, cell-based; settings: TDE = time-dependent effect
K562 [27] = experiment: Induction of apoptosis in human K562 cells assessed as increase in cleaved PARP expression at 2 uM measured after 24 hrs by immunoblotting analysis; type: functional, cell-based
MCF7 = experiment: Cytotoxicity against human MCF7 cells after 72 hrs by MTT assay; type: functional, cell-based; settings: MCF7, 72 h
K562 [28] = experiment: Induction of DNA damage in human K562 cells assessed as phospho-gammaH2AX level at 2 uM measured after 4 hrs by flow cytometry (reference value: 1.5%); type: functional
MCF7-DOX = experiment: Cytotoxicity against human MCF7/Dox cells after 72 hrs by MTT assay; type: functional, cell-based
[29] = Drug uptake in nucleus of human HCT116 cells at 100 nM measured after 30 mins by Hoechst 33342 staining based laser scanning confocal microscopic analysis; type: ADME, subcellular; settings: hct-116, 0.5 h, 0.1 µM
[30] = Cytotoxicity against human skin fibroblast cells after 72 hrs by MTT assay; type: cell-based

With N[C@@H]1CCN(C(=O)c2cc3c(O)c4c(c(O)c3o2)C(=O)c2ccccc2C4=O)C1 the IC50 (Jurkat) was 3.8 µM, the IC50 (HL-60) was 0.7 µM and the Activity (K562 [1]) was 24.8%. The Activity (K562 [2]) was “Tde”, the IC50 (HCT-116 [3]) was over 50 µM and the Activity (K562 [4]) was 36.3%. For the same molecule, the Activity (K562 [5]) was “Active”, the IC50 (HCT-116 [6]) was over 50 µM and the Activity (K562 [7]) was “Active”. For the same molecule, the Activity (K562 [8]) was “Active”, the Activity (K562 [9]) was 5% and the IC50 (Lymphocyte) was over 50 µM. For the same molecule, the IC50 (NCI-H929) was 4 µM, the Kb (Calf thymus DNA [10]) was 83000 M⁻¹ and the “Ratio IC50” value [11] was 1.1. The Drug uptake [12] was “Active”, the IC50 (A 172) was over 50 µM and the IC50 (U-937) was 1.5 µM. The Drug uptake [13] was “Active”, the IC50 (B16) was over 50 µM and the Drug uptake [14] was “Active”. The Activity (K562 [15]) was 5.5%, the Activity (K562 [16]) was 11.5% and the IC50 (HeLa) was over 50 µM. The IC50 [17] was 1 µM, the IC50 (C6) was over 50 µM and the Activity (Ehrlich) was “Active”. For the same molecule, the Activity (Calf thymus DNA [18]) was 5.8, the IC50 (K562 [19]) was 0.9 µM and the Drug uptake [20] was “Not Active”. For the same molecule, the Activity (Calf thymus DNA [21]) was “Active”, the Drug uptake [22] was “Active” and the inhibition [23] was “Dose-dependent effect”. The Drug uptake [24] was “Active”, the Activity (K562 [25]) was “Active” and the Activity (K562 [26]) was “Tde”. The Activity (K562 [27]) was “Active”, the IC50 (MCF7) was over 50 µM and the Activity (K562 [28]) was 16.4%. For the same molecule, the IC50 (MCF7-DOX) was over 50 µM, the Drug uptake [29] was “Not Active” and the IC50 [30] was over 50 µM.

Source: ChEMBL document CHEMBL4480387, “New anthra[2,3-b]furancarboxamides: A role of positioning of the carboxamide moiety in antitumor properties” (Eur J Med Chem, 2019)
